Reference: paper PMC5458078, “Global mapping of CARM1 substrates defines enzyme specificity and substrate recognition” (Nature Communications, 2017)
Like-named read-outs stand apart in the source and are kept apart here.

How the values were obtained:
MCF7 CARM1 KO cells = test: Quantitative MS of ADMA-containing peptides in MCF7 CARM1 KO cells expressing CARM1 28-608 or CARM1 140-608, and in CARM1 KO; assay type: cell-based, human
MCF7 cells = test: Quantitative nanoLC-MS/MS (TMT) of ADMA-containing peptides, CARM1 KO vs parental; assay type: cell-based, human; design: Fold change KO/WT: scale not given here
[1] = CARM1 140-608 versus WT, difference of mean log2 values
[2] = CARM1 KO versus WT, difference of mean log2 values
[3] = ADMA-containing peptide, MCF7, CARM1 knockout (KO1-3) vs wild type (WT1-3), TMT 6-plex experiment #1
[4] = difference of log2 means, CARM1 140-608 vs WT
[5] = difference of log2 means, KO vs WT
[6] = ADMA-containing peptide, CARM1 knockout (KO) vs wild type (WT) MCF7 cells, 6-plex TMT experiment #1, three biological replicates each, sheet "MCF7"
[7] = CARM1 140-608 versus WT, mean of three replicates (log2)
[8] = KO versus WT, mean of three replicates (log2)
[9] = log2 scale ratio, mean of n = 3
[10] = CARM1 140-608 vs WT, mean of 3 replicates (log2 scale)
[11] = KO vs WT, mean of 3 replicates (log2 scale)
[12] = MCF7, CARM1 KO (KO1-KO3) vs wild type (WT1-WT3)
[13] = CARM1 KO vs wild type MCF7 cells, 3 biological replicates each
[14] = mean, CARM1 140-608 versus WT (log2 scale)
[15] = mean, CARM1 KO versus WT (log2 scale)
[16] = CARM1 140-608 vs WT, mean of 3 replicates, log2
[17] = KO vs WT, mean of 3 replicates, log2
[18] = MCF7, CARM1 KO vs WT, three biological replicates each
[19] = MCF7 CARM1 knockout vs wild type, 3 biological replicates each, values are on log2 scale
[20] = ratio on log2 scale, mean of 3 replicates

LINFQNHSPKPNGPVLPPHPQQLrYPPNQNIPrQAIKPNPLQMAFLAQQAIK
CARM1 140-608/WT (MCF7 CARM1 KO cells; [1]): 0.7941
KO/WT (MCF7 CARM1 KO cells; [2]): -2.136
Fold change KO/WT (MCF7 cells; [3]): -2.471

VTrYPILGIPQAHR
CARM1 140-608/WT (MCF7 CARM1 KO cells; [4]): -2.491
KO/WT (MCF7 CARM1 KO cells; [5]): -2.966
Fold change KO/WT (MCF7 cells; [6]): -1.789

LGHDAYrLGQDPYR
CARM1 140-608/WT (MCF7 CARM1 KO cells): -1.007
KO/WT (MCF7 CARM1 KO cells): -1.081
Fold change KO/WT (MCF7 cells; [3]): -1.081

AMLPGSPLFTrAPPPK
CARM1 140-608/WT (MCF7 CARM1 KO cells; [7]): -2.658
KO/WT (MCF7 CARM1 KO cells; [8]): -3.62
Fold change KO/WT (MCF7 cells; [6]): -3.62

TPTATTSGIrATLTPTVLAPR
CARM1 140-608/WT (MCF7 CARM1 KO cells; [9]): 0.4696
KO/WT (MCF7 CARM1 KO cells; [9]): -2.089
Fold change KO/WT (MCF7 cells; [3]): -1.669

FLQPrLAPNQPPPPLIrPALAAPR
CARM1 140-608/WT (MCF7 CARM1 KO cells; [10]): 0.3049
KO/WT (MCF7 CARM1 KO cells; [11]): -2.801
Fold change KO/WT (MCF7 cells; [12]): -3.157

VrINLQQQPPPLQIK
CARM1 140-608/WT (MCF7 CARM1 KO cells; [9]): -1.463
KO/WT (MCF7 CARM1 KO cells; [9]): -4.329
Fold change KO/WT (MCF7 cells; [3]): -3.801

QrGVSHAMGGrGGINrGNIN
CARM1 140-608/WT (MCF7 CARM1 KO cells; [1]): -0.01925
KO/WT (MCF7 CARM1 KO cells; [2]): 0.2719
Fold change KO/WT (MCF7 cells; [3]): 0.1671

DVEAATGQDLGSSrYSGK
CARM1 140-608/WT (MCF7 CARM1 KO cells; [1]): -0.09015
KO/WT (MCF7 CARM1 KO cells; [2]): -0.4514
Fold change KO/WT (MCF7 cells; [13]): 0.2995

APGPrGSYLGGYSAGrGIYSR
CARM1 140-608/WT (MCF7 CARM1 KO cells; [10]): 0.2879
KO/WT (MCF7 CARM1 KO cells; [11]): 0.5206
Fold change KO/WT (MCF7 cells; [12]): 0.2541

SLCASTLTVSSGSSrGSLASSrGSLASSR
CARM1 140-608/WT (MCF7 CARM1 KO cells; [1]): -0.3572
KO/WT (MCF7 CARM1 KO cells; [2]): -0.04724
Fold change KO/WT (MCF7 cells; [13]): -0.6221

LGHDPYrLGHDAYrLGQDPYrLGHDPYR
CARM1 140-608/WT (MCF7 CARM1 KO cells): -1.775
KO/WT (MCF7 CARM1 KO cells): -1.602
Fold change KO/WT (MCF7 cells; [3]): -1.602

VPrFSSLSSCNPPAMATSAEK
CARM1 140-608/WT (MCF7 CARM1 KO cells; [14]): -1.357
KO/WT (MCF7 CARM1 KO cells; [15]): -1.804
Fold change KO/WT (MCF7 cells; MCF7, CARM1 knockout vs wild type, n = 3 each): -1.804

NrGAGGFGGGGGTR
CARM1 140-608/WT (MCF7 CARM1 KO cells; [16]): 0.06902
KO/WT (MCF7 CARM1 KO cells; [17]): 0.4755
Fold change KO/WT (MCF7 cells; [18]): -0.03405

RPPPEHFrRPPPEHFR
CARM1 140-608/WT (MCF7 CARM1 KO cells; [7]): -0.8789
KO/WT (MCF7 CARM1 KO cells; [8]): -0.5356
Fold change KO/WT (MCF7 cells; [12]): -0.5356

VIGTAVArYNFAAR
CARM1 140-608/WT (MCF7 CARM1 KO cells; [1]): -1.8723
KO/WT (MCF7 CARM1 KO cells; [2]): -2.89
Fold change KO/WT (MCF7 cells; [13]): -2.89

LGHDAYrLGQDPYrLGHDPYR
CARM1 140-608/WT (MCF7 CARM1 KO cells): -1.958
KO/WT (MCF7 CARM1 KO cells): -1.784
Fold change KO/WT (MCF7 cells; [3]): -1.784

VLGIIPSSTGTSQQTFTSFQPrTATVTIrPNTSGSGGTTSNSQVITGPQIrPGMTVIrTPLQQSTLGK
CARM1 140-608/WT (MCF7 CARM1 KO cells; [16]): -2.572
KO/WT (MCF7 CARM1 KO cells; [17]): -6.437
Fold change KO/WT (MCF7 cells; [18]): -6.437

LYrYSPQSFLPDSTIQK
CARM1 140-608/WT (MCF7 CARM1 KO cells; [14]): -2.17
KO/WT (MCF7 CARM1 KO cells; [15]): -2.857
Fold change KO/WT (MCF7 cells; [19]): -2.857

MGTPVPRPPQDMGQIGVrTPLGPrVAAPVGPVGPTPTVLPMGAPVPRPrGPPPPPGDENR
CARM1 140-608/WT (MCF7 CARM1 KO cells; [10]): -2.483
KO/WT (MCF7 CARM1 KO cells; [11]): -3.388
Fold change KO/WT (MCF7 cells; [12]): -3.388

STLKPQPAPQAGPIPVAPIGTLKPQPQPVPASYTTASTSSrPTFNVQVK
CARM1 140-608/WT (MCF7 CARM1 KO cells; [4]): -2.676
KO/WT (MCF7 CARM1 KO cells; [5]): -3.941
Fold change KO/WT (MCF7 cells; [19]): -3.941

FSPNPPQQGAVrPQTLNFSSR
CARM1 140-608/WT (MCF7 CARM1 KO cells; [20]): 1.2079
KO/WT (MCF7 CARM1 KO cells; [20]): -1.542
Fold change KO/WT (MCF7 cells; [18]): -3.724

GPPPGSANPPrLVSSYrLK
CARM1 140-608/WT (MCF7 CARM1 KO cells; [4]): -0.6365
KO/WT (MCF7 CARM1 KO cells; [5]): -1.758
Fold change KO/WT (MCF7 cells; [19]): -2.444

QLVGGSQAFYQrAPYPGSLPLQQQQQQLWQQQQATAATSMrFAMSARFPSTPGPELGR
CARM1 140-608/WT (MCF7 CARM1 KO cells; [4]): -1.475
KO/WT (MCF7 CARM1 KO cells; [5]): -2.512
Fold change KO/WT (MCF7 cells; [19]): -2.512

KDLYANTVLSGGSTMYPGIADr
CARM1 140-608/WT (MCF7 CARM1 KO cells; [16]): -0.3764
KO/WT (MCF7 CARM1 KO cells; [17]): -0.3193
Fold change KO/WT (MCF7 cells; [18]): -0.3193

APDEPQQAQVPHVWGWEVAGAPALrLQK
CARM1 140-608/WT (MCF7 CARM1 KO cells; [4]): -2.552
KO/WT (MCF7 CARM1 KO cells; [5]): -3.114
Fold change KO/WT (MCF7 cells; [6]): -2.912

GArGLMNGYR
CARM1 140-608/WT (MCF7 CARM1 KO cells; [16]): 0.7786
KO/WT (MCF7 CARM1 KO cells; [17]): 0.02481
Fold change KO/WT (MCF7 cells; [18]): 0.02481

WrYNKPLPPTPDLPQPHLPPISAPGSSR
CARM1 140-608/WT (MCF7 CARM1 KO cells; [16]): -1.118
KO/WT (MCF7 CARM1 KO cells; [17]): -1.565
Fold change KO/WT (MCF7 cells; [18]): -1.565

GFYPQYGALETrGGFNPR
CARM1 140-608/WT (MCF7 CARM1 KO cells; [14]): -0.6578
KO/WT (MCF7 CARM1 KO cells; [15]): -0.432
Fold change KO/WT (MCF7 cells; [19]): -0.3326
